Measured values reported in patent US6562803B2, “Hair-growing agent” (Kyowa Hakko Kogyo Co., Ltd., priority 2001, dated 2003).

Tested on: mouse hair follicle epithelial cells
Test: Cell growth-promoting effect on cultured mouse hair follicle epithelial cells (MTT)
Type: cell-based
Conditions: cultured 5 days, absorbance at 570 nm, control DMSO alone = 100
Procedure: The skin on the back of a 4-days-old C3H mouse (Charles River Japan, Inc.) was cut off and treated with MEM (Eagle's Minimum Essential Medium) containing 500 units/ml Dispase (Godo Shusei Co., Ltd.) and 5% fetal calf serum (FCS) at 4° C. for 16 hours.
The dermis suspension was filtered through a 212-μm nylon mesh (Nippon Rikagaku Kikai Co., Ltd.) and the filtrate was centrifuged at 1000 rpm for 5 minutes to obtain pellets containing hair follicle tissue. To the pellets was added calcium/magnesium-free PBS (Dulbecco's Phosphate-Buffered Saline) and the pellets were suspended therein using a pipette. The resulting suspension was allowed to stand for 15 minutes to precipitate hair follicle tissue. The same procedure as above (addition of calcium/magnesium-free PBS, suspending by use of a pipette, and precipitation by allowing the suspension to stand for 15 minutes) was repeated three times using the obtained hair follicle tissue.
To the resulting mixture was added DMEM containing 10% FCS to prepare a hair follicle tissue cell suspension having a density of 3×10^5 cells/ml. The hair follicle tissue cell suspension was put into wells of a 24-well collagen-coated plate (Iwaki Glass Co., Ltd.) in an amount of 1 ml/well, followed by culturing in 5% CO2 at 37° C. for 24 hours.
During the culturing, the medium was replaced with a fresh one every other day.
The degree of cell growth was measured according to the method using MTT [3-(4,5-dimethylthiazol-2-yl)-2,5-diphenyl tetrazolium bromide]
To each well of the 24-well microplate (2 cm^2/well) was added a PBS solution of MTT (5 mg/ml) in an amount of 1/10 by volume based on 1 ml of the culture. The plate was shaken to make the mixture homogeneous, followed by culturing in 5% CO2 at 37° C. for 4 hours. Four hours later, the culture was sucked and 1 ml of a 0.04 mol/l solution of HCl in isopropyl alcohol was added to each well to completely dissolve formazan formed in the wells.
The degree of cell growth was determined by measuring the absorbance at 570 nm based on that at 650 nm as a control.

Row | SMILES | Relative cell growth rate based on the control as 100 (30 μmol/l) | Relative cell growth rate based on the control as 100 (1 μmol/l)
1 | Cc1c(C)c2c(c(C)c1O)CCC(C)(CCCC(C)CCCC(C)CCCC(C)C)O2 (racemic) [dl-α-Tocopherol, dl-α-tocopherol] | 178 | –
2 | Oc1cc(O)c2c(c1)O[C@H](c1ccc(O)c(O)c1)[C@H](O)[C@H]2c1c(O)cc(O)c2c1O[C@H](c1ccc(O)c(O)c1)[C@H](O)C2 [Procyanidin B-2, epicatechin-(4β→8)-epicatechin] | 295 | –
3 | CCCCCCCC/C=C\CCCCCCCC(=O)OCC(COP(=O)(O)O)OC(C)=O (stereo not drawn) [1-O-oleoyl-2-O-acetylglyceryl-3-phosphoric Acid] | – | 327
